{
  "source": "patent US8889192B2",
  "about": "“Magnetic nanomedicine for inhibiting/treating human prostate cancer” (priority 2011, dated 2014)",
  "key": {"[1]": {"test_system": "human prostate cancer cells PC3", "experiment": "Growth of PC3 cells, XTT cell counting", "assay_type": "cell-based", "settings": "10 μM, 48 hours, no magnetic field", "method": "Cell cultivation: Place 150 μL of a mixture liquid containing 10000 human prostate cancer cells PC3 into every well of a 96-well culture plate. […] Agent addition: 24 hours later, separately mix […] magnetic nanocomposite (600 μg/mL), Taxol, and […]/Taxol magnetic nanomedicine with a RPMI1640 medium to form mixed solutions. […] Cell counting: […]"}, "[2]": {"test_system": "human prostate cancer cells CWR22R", "experiment": "Growth of CWR22R cells, XTT cell counting", "assay_type": "cell-based", "settings": "10 μM, 48 hours, no magnetic field", "method": "Cell cultivation: Place 150 μL of a mixture liquid containing 10000 human prostate cancer cells CW[…] into every well of a 96-well culture plate. […] Agent addition: 24 hours later, separately mix […] magnetic nanocomposite (600 μg/mL), Taxol, and […]/Taxol magnetic nanomedicine with a RPMI1640 medium to form mixed solutions. […] Cell counting: Remove RPMI1640 and add 120 μL of an XTT reaction liquid to the wells."}, "tubulin protein [3]": {"test_system": "tubulin protein"}, "α-tubulin": {"test_system": "α-tubulin", "experiment": "Content of α-tubulin in CWR22R cells, Western method", "settings": "10 μM, 24 hours, no magnetic field"}, "tubulin protein [4]": {"test_system": "tubulin protein", "experiment": "Stability analysis: residual activity by tubulin protein assay after storage", "settings": "stored at 25° C. for 14 days"}},
  "data": [
    {"smiles": "CC(=O)O[C@H]1C(=O)[C@@]2(C)[C@H]([C@H](OC(=O)c3ccccc3)[C@]3(O)C[C@H](OC(=O)[C@H](O)[C@@H](NC(=O)c4ccccc4)c4ccccc4)C(C)=C1C3(C)C)[C@]1(OC(C)=O)CO[C@@H]1C[C@@H]2O", "note": "[Taxol]", "values": [
      {"measurement": "PC3 growth-inhibition ratio", "setting": "[1]", "value": 25, "unit": "%"},
      {"measurement": "CWR22R growth-inhibition ratio", "setting": "[2]", "value": 41, "unit": "%"},
      {"measurement": "half life", "setting": "tubulin protein [3]", "value": 32, "unit": "h"},
      {"measurement": "half-life", "setting": "physchem", "value": 19, "unit": "h"},
      {"measurement": "α-tubulin inhibition ratio", "setting": "α-tubulin", "value": 52, "unit": "%"},
      {"measurement": "activity after storage", "setting": "tubulin protein [4]", "value": "has lost its activity"}
    ]}
  ]
}
